Measurements from patent publication US9388148B2, “Acylaminocycloalkyl compounds suitable for treating disorders that respond to modulation of dopamine D3 receptor” (AbbVie Deutschland GmbH & Co. KG, priority 2013, dated 2016).

Assays:
[1] = target: T1, human dopamine D3 receptors (Homo sapiens, UniProt P35462); experiment: Dopamine D3 receptor binding ([125I]-iodosulpride displacement); conditions: membranes of HEK-293 cells with human D3 receptors, 0.1 nM [125I]-iodosulpride
T1 construct: expressed in transfected cells; host or cells: HEK-293
Description: The substance to be tested was either dissolved in methanol/Chremophor® (BASF SE) or in dimethyl sulfoxide and then diluted with water to the desired concentration.
Each assay mixture was run in triplicate. • The incubation buffer contained 50 mM tris, 120 mM NaCl, 5 mM KCl, 2 mM CaCl2, 2 mM MgCl2 and 0.1% bovine serum albumin, 10 μM quinolone and 0.1% ascorbic acid (prepared fresh daily). […] Each assay mixture was run in triplicate. • The incubation buffer contained 50 mM tris, 120 mM NaCl, 5 mM KCl, 2 mM CaCl2, 2 mM MgCl2 and 0.1% bovine serum albumin. The buffer was adjusted to pH 7.4 with HCl. c) Measurement and analysis: • After having been incubated at 25° C. for 60 minutes, the assay mixtures were filtered through a Whatman GF/B glass fiber filter under vacuum using a cell col-lecting device. The filters were transferred to scintillation viols using a filter transfer system. After 4 ml of Ultima Gold® (Packard) have been added, the samples were shaken for one hour and the radioactivity was then counted in a Beta-Counter (Packard, Tricarb 2000 or 2200CA).

[2] = target: T2, human dopamine D2L receptors (long isoform) (Homo sapiens, UniProt P14416); experiment: Dopamine D2L receptor binding ([125I]iodospiperone displacement); conditions: selectivity ratio, human D2L vs human D3 binding
T2 construct: expressed in transfected cells; host or cells: HEK-293
Procedure, shortened: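 Triplicate radioligand displacement in 50 mM tris, 120 mM NaCl, 5 mM KCl, 2 mM CaCl2, 2 mM MgCl2, 0.1% BSA, pH 7.4; the D3 buffer also contained 10 μM quinolone and 0.1% ascorbic acid. Incubation was 60 min at 25 °C, followed by GF/B filtration and scintillation counting.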

T1 sequence (P35462 whole entry): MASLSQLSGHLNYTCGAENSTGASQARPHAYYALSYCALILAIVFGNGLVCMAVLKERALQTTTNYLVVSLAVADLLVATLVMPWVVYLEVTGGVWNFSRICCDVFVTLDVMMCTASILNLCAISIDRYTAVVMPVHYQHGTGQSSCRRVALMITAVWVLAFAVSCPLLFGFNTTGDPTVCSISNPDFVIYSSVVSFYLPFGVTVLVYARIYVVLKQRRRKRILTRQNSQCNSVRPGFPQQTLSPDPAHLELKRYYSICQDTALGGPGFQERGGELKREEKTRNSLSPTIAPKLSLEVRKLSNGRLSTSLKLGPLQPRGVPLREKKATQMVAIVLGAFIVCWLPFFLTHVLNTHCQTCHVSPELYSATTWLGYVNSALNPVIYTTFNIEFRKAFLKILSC
T2 sequence (P14416 whole entry, canonical isoform): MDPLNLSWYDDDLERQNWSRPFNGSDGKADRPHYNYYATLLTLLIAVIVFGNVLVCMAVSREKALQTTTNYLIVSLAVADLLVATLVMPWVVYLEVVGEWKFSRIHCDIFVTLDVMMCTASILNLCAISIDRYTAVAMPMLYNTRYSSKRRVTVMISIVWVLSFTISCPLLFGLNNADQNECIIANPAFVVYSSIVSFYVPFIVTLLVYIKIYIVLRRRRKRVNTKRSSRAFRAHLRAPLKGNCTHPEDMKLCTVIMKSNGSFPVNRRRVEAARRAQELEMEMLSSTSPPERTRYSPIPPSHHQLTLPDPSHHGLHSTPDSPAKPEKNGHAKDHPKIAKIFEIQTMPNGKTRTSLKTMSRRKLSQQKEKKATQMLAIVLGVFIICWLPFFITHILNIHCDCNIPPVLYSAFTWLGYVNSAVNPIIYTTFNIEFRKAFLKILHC

Ki [1]: < 10 nM
D2/D3, Ki (D2L)/Ki (D3) [2]: +++ (+++ >50)
Compound: CC(C)c1cc(N2CCN(CCC3CCC(NC(=O)[C@H]4CC[C@H](O)CC4)CC3)C[C@@H]2C)nc(C(C)(C)C)n1 (stereo partly drawn) [Compound 46, Trans-N-[4-[2-[(3S)-4-(2-tert-butyl-6-isopropyl-pyrimidin-4-yl)-3-methyl-piperazin-1-yl]ethyl]cyclohexyl]-4-hydroxy-cyclohexanecarboxamide]
